Reference: US20070197957A1, “Implantable sensors, implantable pumps and anti-scarring drug combinations” (priority 2005, published 2007)

How the values were obtained:
Experiment in all cases: MIC by microtitre broth dilution
Type in all cases: cell-based
E. coli UB1005 C498 = conditions: Mueller Hinton broth, 37° C., 24 h, aerobic
Method: (§1) MIC assays were conducted essentially as described by Amsterdam, D. 1996, “Susceptibility testing of antimicrobials in liquid media”, p. 52-111, in Loman, V., ed. Antibiotics in laboratory medicine, 4th ed. Williams and Wilkins, Baltimore, Md.

S. epidermidis C621 = conditions: Mueller Hinton broth, 37° C., 24 h, aerobic
Method: as §1

[1] = system: P. aeruginosa PAE/K799 H187; conditions: Mueller Hinton broth, 37° C., 24 h, aerobic
Method: as §1

S. pyogenes C721 = conditions: Todd Hewitt broth, 37° C., 24 h, aerobic
Method: as §1

S. aureus ATCC25923 C622 = conditions: Mueller Hinton broth, 37° C., 24 h, aerobic
Method: as §1

[2] = system: K. pneumoniae ATCC13883 C238; conditions: Mueller Hinton broth, 37° C., 24 h, aerobic
Method: as §1

Row | SMILES | Minimum inhibitory concentration, E. coli UB1005 C498 wt Gram− (E. coli UB1005 C498) | Minimum inhibitory concentration, S. epidermidis C621 wt Gram+ (S. epidermidis C621) | Minimum inhibitory concentration, P. aeruginosa PAE/K799 H187 Wt Gram− [1] | Minimum inhibitory concentration, S. pyogenes C721 wt Gram+ (S. pyogenes C721) | Minimum inhibitory concentration, S. aureus ATCC25923 C622 wt Gram+ (S. aureus ATCC25923 C622) | Minimum inhibitory concentration, K. pneumoniae ATCC13883 C238 wt Gram− [2]
1 | Sc1ncc2[nH]cnc2n1 [2-mercaptopurine] | N | N | N | N | N | N
2 | O=c1[nH]cc(F)c(=O)[nH]1 [5-fluorouracil] | 10^−6 Molar | 10^−7 Molar | 10^−5 Molar | 10^−4 Molar | 10^−7 Molar | 10^−6 Molar
3 | Sc1ncnc2nc[nH]c12 [6-mercaptopurine] | N | N | N | N | N | N
4 | Nc1ccn([C@@H]2O[C@H](CO)[C@@H](O)[C@@H]2O)c(=O)n1 [Cytarabine, cytarabine] | N | N | N | N | N | N
5 | CC[C@@]1(O)C(=O)OCc2c1cc1n(c2=O)Cc2cc3ccccc3nc2-1 [camptothecin] | N | 10^−4 Molar | N | N | N | N
6 | N.N.[Cl][Pt][Cl] [cisplatin] | N | N | 10^−4 Molar | N | N | N
7 | COc1cccc2c1C(=O)c1c(O)c3c(c(O)c1C2=O)C[C@@](O)(C(=O)CO)C[C@@H]3O[C@H]1C[C@H](N)[C@H](O)[C@H](C)O1 [doxorubicin] | 10^−4 Molar | 10^−6 Molar | 10^−5 Molar | 10^−7 Molar | 10^−5 Molar | 10^−6 Molar
8 | COc1cc([C@@H]2c3cc4c(cc3[C@@H](O[C@@H]3O[C@@H]5CO[C@@H](C)O[C@H]5[C@H](O)[C@H]3O)[C@H]3COC(=O)[C@H]23)OCO4)cc(OC)c1O [etoposide] | N | 10^−6 Molar | N | 10^−5 Molar | 10^−5 Molar | 10^−5 Molar
9 | NC(=O)NO [hydroxyurea] | N | N | 10^−4 Molar | 10^−4 Molar | N | N
